Measured values: a melting point compilation (Tetko et al.; mined from patent text by program, amines drawn as free bases though some values may be those of a salt)

For Nc1nc(-c2ccccc2OCC(F)(F)F)[nH]c(=O)c1N=O, the melting point was 210 to 212 °C. In the case of COC(=O)N1CCC(c2ccc(N3C[C@H](CNC(C)=O)OC3=O)cc2F)CC1, the melting point is reported as 165 to 166 °C. Work on Oc1ccc2cc(Oc3c(Cl)cc(C(F)(F)F)cc3Cl)ccc2c1 yielded a melting point of 158 °C. For O=C(O)C1CC(O)CN1C(=O)c1ccc2c(c1)OCO2 (configuration not stated), the melting point was 230 °C. With O=C(N[C@@H](Cc1ccccc1)C(=O)N[C@@H](Cc1cncn1COCc1ccccc1)C(=O)O)C1CCCC1 the melting point was 195 to 197 °C. Molecule c1ccc2c(OCCN3CCCCC3)c3ccccc3c(OCCN3CCCCC3)c2c1 has a melting point of 103 to 106 °C. COC1=C(OC)C(=O)C2=C(CCC(CCOc3ccc4ccccc4n3)CC2)C1=O showed a melting point of 134 to 136 °C. O=C(O)C(Oc1ccc(Cl)cc1)(C(F)(F)F)C(F)(F)F showed a melting point of 81 to 83 °C. Work on CC1(C)Nc2ccc(C#N)cc2C(NC(=NC#N)Nc2ccccc2)C1O (configuration not stated) yielded a melting point of 218 to 219 °C. Work on CN1CC(=Cc2c(F)c(F)c(N=[N+]=[N-])c(F)c2F)C(=O)C(=Cc2c(F)c(F)c(N=[N+]=[N-])c(F)c2F)C1 yielded a melting point of 153 °C. Molecule CC1=NNC(=O)c2cccc3[nH]cc1c23 has a melting point of 335 to 336 °C. With COc1cc2ncc(C#N)c(Nc3cc(Br)c(O)c(Br)c3)c2cc1OC the melting point was > 250 °C. For CO/C=C(/C(=O)OC)c1c(O)c(C)nn1C, the melting point was 173 °C. With Cc1cc(-c2ccnc(C(N)=O)c2)n(-c2ccc(F)cc2)n1 the melting point was 168 to 170 °C. COc1ccccc1[C@H]1CC[C@@H](c2ccccc2)N1C(=O)CNC(=O)Nc1cccc(CC(=O)O)c1 (racemic) showed a melting point of 140 °C. N#Cc1ccccc1SC1SCC(O)C(O)C1O (configuration not stated) showed a melting point of 118 to 119 °C. Work on O=C(Cc1cccc2ccccc12)Nc1cc(C2CC(NC(=O)C3CC3c3ccccc3)C2)[nH]n1 (configuration not stated) yielded a melting point of 140 °C. O=C(NC(C(=O)O)C(=O)O)OCc1ccccc1 showed a melting point of 144 to 145 °C. In the case of CCOC(=O)C(=CNc1ncnc2ccc(NC(=O)C(CC)CC)cc12)C(=O)OCC, the melting point is reported as 191 to 194 °C. With CSc1ncc(Cc2cccnc2)c(=O)[nH]1 the melting point was 247 to 249 °C. CNC(=O)n1nc(Oc2c(F)cc(C(F)(F)F)cc2Cl)cc1C showed a melting point of 87 to 88 °C. For Fc1cccc(CSc2nnc(-c3ccc4occc4c3)o2)c1, the melting point was 112 to 113 °C. For CCOC(=O)CNS(=O)(=O)c1sccc1C=O, the melting point was 74 to 76 °C. Molecule Cc1oc(-c2cccnc2)nc1CCl has a melting point of 87 to 88 °C. Molecule COC(=O)c1ncc(Cl)nc1NCc1ccc(OC)c(Cl)c1 has a melting point of 149 to 151 °C. With COC(=O)c1sccc1-c1cc2c(cc1C)C(C)(C)CCC2(C)C the melting point was 89 to 90 °C. With CCCc1nc(Cl)c(-c2ccc(C)cc2)c(Cl)n1 the melting point was 91 to 93 °C. Molecule CC(C)(C)Nc1nccc(C#C[Si](C)(C)C)n1 has a melting point of 71 to 73 °C. Molecule Cc1ccc(CCCO)c(NCc2ccc3nc(NCCCN4CCOCC4)n(Cc4cc(Br)ccc4O)c3c2)c1 has a melting point of 134 °C. With CN1CCN(c2c(F)cc3c(=O)c(C(=O)O)cn(C4COC4)c3c2Cl)CC1 the melting point was 211 to 212 °C. COc1ccc(N2CCN(c3ncc(-n4cn[nH]c4=O)cn3)CC2)cc1 showed a melting point of 272 °C. In the case of CCOC(=O)c1cnc2onc(C)c2c1O, the melting point is reported as 150 to 152 °C. Work on COC(=O)c1ccc2nn(-c3cc(C(C)(C)CC(C)(C)C)cc(C(C)(C)c4ccccc4)c3O)nc2c1 yielded a melting point of 141 to 143 °C. For COc1cc(OCc2ccccc2)ccc1-c1nc2ncccc2[nH]1, the melting point was 244 °C. In the case of CCCCCCC#Cc1csc(C=O)c1, the melting point is reported as 2 °C. CCOC(=O)c1sc(-c2ccc(Cl)cc2Cl)nc1C showed a melting point of 100 °C. For CNS(=O)(=O)c1ccc2c(c1)S(=O)(=O)NC1CCCN21 (configuration not stated), the melting point was 244 to 245 °C. With CC1N=C(c2ccccc2)NC1=O (configuration not stated) the melting point was 165 °C. Work on COCCOCCOc1ccc(/C=C/C(=O)O)c(Oc2ncc(C(F)(F)F)cc2Cl)c1 yielded a melting point of 134 °C. Molecule COc1ccc2c(c1)NC(=O)C(CCCN1CCN(c3ccc(F)cc3)CC1)O2 (configuration not stated) has a melting point of 153 to 154 °C. For CCOC(=O)C(C(=O)COC(C)C)C1c2ccccc2C(=O)N1c1ccc2ccc(Cl)nc2n1 (configuration not stated), the melting point was 205 °C. Molecule CC1(C)CC(OC(=O)NN)CC(C)(C)N1 has a melting point of 93 to 94 °C. Molecule CON(C)C(=O)c1cc(-c2ccccc2)n[nH]1 has a melting point of 135 to 138 °C. In the case of COc1ccc(-c2[nH]cnc2-c2cc(OC)c(N)c(OC)c2)cc1O, the melting point is reported as 142 to 144 °C. CCOC(=O)c1cnc(-c2ccc(OC)cc2OC)[nH]c1=O gave a melting point of 190 to 192 °C. Molecule COC(=O)c1cc(-c2ccc(OC)c(OC)c2)nn(CC=Cc2ccc(Cl)cc2)c1=O has a melting point of 118 to 119 °C. Work on CC1CCN(c2cc3nc(C(C)(C)C)sc3cc2NC(=S)N2CCN(C)CC2)CC1 yielded a melting point of 192 to 195 °C. With CCOC(=O)c1ncn2c1CNC(=O)c1ccccc1-2 the melting point was 248 to 250 °C. Work on CSc1nc(Cl)c(-c2ccc(C)cc2)c(Cl)n1 yielded a melting point of 74 to 78 °C. For O=C1OC(CCCCN2CCN(c3ccccc3O)CC2)CN1c1ccccc1 (configuration not stated), the melting point was 123 to 129 °C. In the case of Cc1cn(C)c2c1Nc1ccccc1NC2=O, the melting point is reported as 184 °C. COc1ccc(C2=NN=C(C)C(C)c3cc(OC)c(OC)cc32)cc1OC (configuration not stated) gave a melting point of 201 to 203 °C. For O=C(Cn1c(-c2ccc(F)cc2)ncc(NC(=O)OCc2ccccc2)c1=O)N[C@@H](Cc1ccccc1)C(=O)C(F)(F)C(=O)NCc1ccccc1, the melting point was 185 to 186 °C. O=C(c1cccs1)c1cnn2c(-c3ccc(F)c(-c4ccc(CO)cc4)c3)ccnc12 gave a melting point of 140 to 145 °C. For COc1cccc2cc(CN(C)CCNC(=O)C34CC5CC(CC(C5)C3)C4)oc12, the melting point was 156 to 158 °C. Molecule c1ccc(C2SCCCS2)cc1 has a melting point of 72 to 73 °C. With c1cc2c3c(c1)[C@H]1CCC[C@H]1N3CCNCC2 (relative stereo) the melting point was > 130 °C. With Cc1cnc(C2=NC(C)(C(C)C)C(=O)N2)c(C(=O)c2cccs2)c1 (configuration not stated) the melting point was 168 to 170 °C. COc1cccc(Cc2cc3cccc(-c4cccc(C(=O)NCCN5CCCC5)c4)c3o2)c1 showed a melting point of 101 to 102 °C. With COc1ccc2c(c1)CC[C@@H]1[C@@H]2CC[C@@]2(C)[C@H]1CCC21C=CCO1 (some centres not stated) the melting point was 159 to 161 °C. For CC(=O)N(C)Cc1ccc(OCc2ccc(F)cc2)cc1, the melting point was 82 to 83 °C. CCCCc1nc2cnc3cccnc3c2n1CCCCNC(=O)OC(C)(C)C gave a melting point of 96 to 98 °C. For Cc1cc2c(c(C)c1NC(=O)CC(C)(C)C)C(O)C(C)(C)O2 (configuration not stated), the melting point was 217 to 218 °C. CC(C)c1cc(OC2CN(C(c3ccccc3)c3ccccc3)C2)cc2c1C(=O)N(COC(=O)c1c(Cl)cccc1Cl)S2(=O)=O showed a melting point of 205 to 207 °C. COc1ccc(CS(=O)CC(=O)NO)cc1OC (configuration not stated) gave a melting point of 202 °C. CN1C(=O)C(C(=O)Nc2ccc(F)cc2)S(=O)(=O)c2ccc(Cl)cc21 (configuration not stated) gave a melting point of 234 to 236 °C. Molecule CCOC(=O)N(c1ccc(C#N)cc1)c1c(NC(C)C(C)(C)C)c(=O)c1=O (configuration not stated) has a melting point of 158 to 159 °C. With CC1=C2CCC(=O)C23CCC(C3)C1(C)C (configuration not stated) the melting point was 35 to 36 °C. COc1ccc2[nH]c3c(C)c4ccnc(NC5CC(C)(C)NC(C)(C)C5)c4cc3c2c1 showed a melting point of 223 to 225 °C. CCOCc1nc2c(N)nc3ccccc3c2n1Cc1cc(C)no1 showed a melting point of 178 to 180 °C. COC(=O)C1(Cl)CC1C(=O)O (configuration not stated) showed a melting point of 77.7 to 79.1 °C. With c1ccc(CN2CC3(COc4cc5c(cc43)CCO5)c3c(-c4cccnc4)cccc32)nc1 (configuration not stated) the melting point was > 200 °C.
